Experimental data taken from the Deep4Chem optical property database.
Each block holds one compound with its values, some of them ahead of it.

Experiment: photoluminescence quantum yield (fraction); solvent given as SMILES

SMILES: CCCCOC(=O)c1cc(Cl)c2c3c(Cl)cc4c5c(cc(Cl)c(c6c(Cl)cc(C(=O)OCCCC)c1c26)c53)C(=O)N(c1c(C(C)C)cccc1C(C)C)C4=O
photoluminescence quantum yield (in Cc1ccccc1): 0.89

SMILES: CCCCNc1ccc2n1[B-](F)(F)[N+]1=CC(/C=C/C(=O)OC(C)(C)C)=CC1=C2c1c(C)cc(C)cc1C
photoluminescence quantum yield (in ClCCl): 0.59

SMILES: COC(=O)c1c(NC(C)(C)C)oc(-c2ccc(-c3ccccc3)cc2)c1C(=O)OC
photoluminescence quantum yield (in CC#N): 0.14

SMILES: O=C(Cc1ccccc1)OCc1ccc2c3cccc4cccc(c5cccc1c52)c43
photoluminescence quantum yield (in CCO): 0.92

SMILES: N#CC1=CC=CC(C#N)=P1(c1ccccc1)c1ccccc1
photoluminescence quantum yield (in ClC(Cl)Cl): 0.92

SMILES: CCCCCCCCC1(CCCCCCCC)c2ccccc2-c2ccc(N(c3ccc(-n4c5ccccc5c5ccccc54)cc3)c3ccc4c(c3)C(CCCCCCCC)(CCCCCCCC)c3ccccc3-4)cc21
photoluminescence quantum yield (in C1CCOC1): 0.24
photoluminescence quantum yield (in CC#N): 0.31
photoluminescence quantum yield (in CC(C)=O): 0.31
photoluminescence quantum yield (in CCCCCC): 0.27
photoluminescence quantum yield (in CCCCOCCCC): 0.25
photoluminescence quantum yield (in CCN(CC)CC): 0.27
photoluminescence quantum yield (in CCOC(C)=O): 0.3
photoluminescence quantum yield (in CCOCC): 0.37
photoluminescence quantum yield (in CN(C)C=O): 0.32
photoluminescence quantum yield (in Cc1ccccc1): 0.36
photoluminescence quantum yield (in ClCCl): 0.3

SMILES: Cc1c(C)c(B(c2c(C)c(C)c(C#N)c(C)c2C)c2c(C)c(C)c(N3c4ccccc4Oc4ccccc43)c(C)c2C)c(C)c(C)c1C#N
photoluminescence quantum yield (in c1ccc([Si](c2ccccc2)(c2ccc(-n3c4ccccc4c4ccccc43)cc2)c2ccc(-n3c4ccccc4c4ccccc43)cc2)cc1): 0.67

SMILES: Clc1cnc2nn3ccccc3c2n1
photoluminescence quantum yield (in C1CCOC1): 0.38

SMILES: CCn1c(-c2ccc(-c3ccc4ccc5cccc6ccc3c4c56)cc2)c(-c2ccc3ccccc3c2)c(-c2ccc3ccccc3c2)c1-c1ccc(-c2ccc3ccc4cccc5ccc2c3c45)cc1
photoluminescence quantum yield (in CCOC(C)=O): 0.99

SMILES: CC1(C)c2cc(/C=C/c3nc(/C=C/c4ccc5c(c4)C(C)(C)c4cc(N(c6ccccc6)c6ccccc6)ccc4-5)nc(/C=C/c4ccc5c(c4)C(C)(C)c4cc(N(c6ccccc6)c6ccccc6)ccc4-5)n3)ccc2-c2ccc(N(c3ccccc3)c3ccccc3)cc21
photoluminescence quantum yield (in Cc1ccccc1): 0.36

SMILES: COc1ccc(N2c3ccc4ccccc4c3-c3c4ccccc4cc[n+]3[B-]2(c2ccccc2)c2ccccc2)cc1
photoluminescence quantum yield (in Cc1ccccc1): 0.001

SMILES: CN(C)c1cccc2c1C(=O)c1ccccc1-2
photoluminescence quantum yield (in C1CCCCC1): 0.0016
photoluminescence quantum yield (in CC#N): 0.0027
photoluminescence quantum yield (in CCO): 0.004
photoluminescence quantum yield (in c1ccccc1): 0.0024

SMILES: CC1=[N+]2C(=C(C3=CC4OCCOCCOCCOCCOC4C=C3)c3c4ccccc4c(/C=C/c4ccc(N(C)C)cc4)n3[B-]2(F)F)c2ccccc21 (centres undefined)
photoluminescence quantum yield (in CC#N): 0.24

The remaining lines, values ahead:

photoluminescence quantum yield (in ClCCl): 0.04
SMILES: COc1ccc(C#Cc2ncc(-c3ccccc3)o2)cc1OC

photoluminescence quantum yield (in C1CCOC1): 0.084
photoluminescence quantum yield (in CC#N): 0.002
photoluminescence quantum yield (in CN(C)C=O): 0.002
photoluminescence quantum yield (in ClC(Cl)Cl): 0.999
photoluminescence quantum yield (in c1ccccc1): 0.999
SMILES: CN(C)c1ccc(C#Cc2ccc(C#Cc3ccc(C#Cc4ccccc4C#N)cc3C#N)cc2C#N)cc1

photoluminescence quantum yield (in ClCCl): 0.93
SMILES: CCCCCCCCCCCCOc1cc2cc(N(C)C)ccc2cc1C=O

photoluminescence quantum yield (in ClCCl): 0.43
SMILES: C(#Cc1c(C#Cc2ccccc2)c(C#Cc2ccccc2)c(C#Cc2ccccc2)c(C#Cc2ccccc2)c1C#Cc1ccccc1)c1ccccc1

photoluminescence quantum yield (in CCO): 0.25
photoluminescence quantum yield (in ClCCl): 0.28
SMILES: O=Cc1cnc(-c2c3ccccc3cc3ccccc23)nc1

photoluminescence quantum yield (in O): 0.24
SMILES: O=C([O-])c1cc2c(ccc3ccccc32)oc1=O

photoluminescence quantum yield (in C1CCCCC1): 0.0087
photoluminescence quantum yield (in c1ccccc1): 0.0012
SMILES: CN(C)c1ccc2c(c1)C(=O)c1ccccc1-2

photoluminescence quantum yield (in ClCCl): 0.38
SMILES: CCCCN(CCCC)c1ccc(C#Cc2cc(C#Cc3ccc(N(CCCC)CCCC)cc3)c(C#Cc3ccc(C(F)(F)F)cc3)cc2C#Cc2ccc(C(F)(F)F)cc2)cc1

photoluminescence quantum yield (in ClCCl): 0.92
SMILES: CCCCN1C(=O)c2ccc3c4ccc5c6c(cc(Br)c(c7ccc(c2c37)C1=O)c64)C(=O)N(CCCC)C5=O

photoluminescence quantum yield (in ClCCl): 0.009
SMILES: CN(C)c1ccc(C#Cc2cc3ccccc3oc2=O)cc1

photoluminescence quantum yield (in O): 0.13
SMILES: CN(C)c1ccc2c(c1)C(C)(C)C(=O)C=C2

photoluminescence quantum yield (in ClC(Cl)Cl): 0.31
SMILES: CCCCN1C(=O)c2cc(Br)c3c4c(Br)cc5c6c(cc(Br)c(c7c(Br)cc(c2c37)C1=O)c64)C(=O)N(CCCC)C5=O
